“Also recorded” adds a separate entry of the source. Where two headings read alike, the source gives them in different places.
Assays:
E. coli (strain K12) = assay: Kill-curve test (CFU over time); format: cell-based, Escherichia coli
Experimental: (§1) Antibacterial growth was measured using a checkerboard analysis or qualitatively using agar plates with zones of inhibition. Viability was measured by the number of colony forming units (CFU) over time.
(§2) Escherichia coli (E. coli), strain K12, was cultured in Luria-Bertani (LB) medium and inoculated at 37 C.
(§3) For each test tube, 1 mL of culture at OD600 of 0.005 was added to 1 mL of LB medium containing antibiotics to reach target sub-MIC concentrations of each compound. Samples of 100 μL was extracted from each tube at the determined time stamps followed by 10-fold serial dilutions. 10 μL of each dilution was then added on the LB agar plates that were subsequently incubated for 24 hours. Colonies were inspected and results quantified as log CFU/mL.

MRSA (strain USA300) [1] = assay: microbe, parasite or virus in culture; format: cell-based, Methicillin-resistant Staphylococcus aureus; settings: agent alone, silver expressed as silver
Source text: In therapeutic applications, synergy between active ingredients occurs when an observed combined therapeutic effect is greater than the sum of therapeutic effects of individual active ingredients, or a new therapeutic effect is produced that the active ingredients could not produce alone. […] In this context, the enhancement of therapeutic effect may take the form of increased efficacy or potency and/or decreased adverse effects. The synergistic effect may be mediated in whole or in part by the pharmacokinetics and/or pharmacodynamics of the active ingredients in a subject, so that the amount and proportion of the ingredients in the formulation may be synergistic in vivo. This in vivo synergy may be effected with a formulation that includes the active ingredients in amounts and proportions that are also synergistic in in vitro assays of efficacy. As used herein, the term “synergistically effective amounts” accordingly refers to amounts that are synergistic in vivo and/or in vitro. A numeric quantification of synergy is often expressed as a fractional inhibitory concentration index (FICI), which represents the sum of the fractional inhibitory concentrations (FICs) of each drug tested, where the FIC is determined for each drug by dividing the minimum inhibitory concentration (MIC, the lowest concentration of the drug which prevents visible growth of the bacterium in a standard in vitro assay—standard colorometric assay based on resazurin) of each drug when used in combination by the MIC of each drug when used alone. In very general terms, a FICI lower or higher than 1 indicates positively correlated activity (at least additive or potentiation) or an absence of positive interactions, respectively. […] (as described and used by Joung D K et al. and Rakoliya K et al.)
(§4) Cannabinoids or silver (expressed as the concentration of silver not the salt) were serially diluted 2-fold across the 96-well plate (Costar, catalog no. 3370) followed by addition of 100 μL of bacterial cultures with an OD600 of 0.0025. […] Wells turbidity were then analyzed using Varioskan™ microplate reader.

MRSA (strain USA 300) = format: cell-based, Methicillin-resistant Staphylococcus aureus; settings: for inhibition of bacterial growth (ring): single agent at 2% w/w to PVA, films and coated catheter sections, 24 hours
Experimental: PVA films were made by solvent casting using 33 μl drops of 2.5% PVA (88% hydrolyzed, 125 KDa molecular weight) mixed with CBC, CBG or CBGA (2% w/w to PVA). […] 3 mm sections of a urethral catheter (BARDEX® BARD®) were cut and coated with the same 33 μl volume of PVA/Silver/cannabinoid used to make films. Films and coated catheter sections were dried overnight in the dark. Five cavities were created in the LB agar plates containing MRSA (strain USA 300) at OD600 of 0.005. PVA films and catheters coated with PVA films were then placed in the cavities and moistened with 20 μL of deionized distilled water. Plates were incubated for 24 hours at 37° C.

E. coli strain K12 = assay: Checkerboard assay, FICI of cannabinoid/silver combinations; format: cell-based, Escherichia coli; settings: for FICI Silver Nanoparticles: Silver Nanoparticles in combination with the cannabinoid; for FICI Silver Sulfate: Silver Sulfate in combination with the cannabinoid
Experimental: as §1
(§5) Using checkerboard analysis, the fractional inhibitory concentration index (FICI) was calculated for the 96-well plate test to illustrate synergy.
as §2, §4
(§6) FICI was calculated in a checkerboard assay based on the turbidity of the wells. FIC of each agent was determined as the ratio of the minimal inhibitory concentration MIC of one agent in the presence of the other agent to the MIC of that agent alone. FICI was consequently computed as the sum of each agent's FIC.

MRSA (USA300) = assay: as above; format: cell-based, Methicillin-resistant Staphylococcus aureus
Experimental: as §1, §5
(§7) MRSA strain, USA300, was cultured in Luria-Bertani (LB) medium and inoculated at 37 C.
as §4, §6

MRSA (strain USA300) [2] = assay: Kill-curve test (CFU over time); format: cell-based, Methicillin-resistant Staphylococcus aureus
Experimental: as §1, §7, §3

[3] = 8 mg/L cannabinoid + 2.5, 1.25 and 0.625 mg/L AgSO4 (each)
[4] = Staphylococcus aureus, read-out: MIC
[5] = cannabinoid with silver nanoparticles
[6] = cannabinoid with silver sulfate
[7] = Silver Nanoparticles in combination with the cannabinoid
[8] = Silver Nitrate in combination with the cannabinoid
[9] = cannabinoid with silver nitrate
[10] = cannabinoid ¼×MIC + silver nitrate 5 and 8 mg/L
[11] = cannabinoid ½×MIC + AgNP 1/160×MIC (0.25 mg/L)
[12] = cannabinoid ½×MIC + AgNP ⅛×MIC (5 mg/L)
[13] = cannabinoid ½×MIC + silver nitrate 1 mg/L
[14] = cannabinoid ½×MIC + silver nitrate 5 and 8 mg/L

Structure (SMILES)	MIC (MRSA (strain USA300) [1]; [4]) [µg/mL]	inhibition of bacterial growth (ring) (MRSA (strain USA 300))	FICI Silver Nanoparticles (E. coli strain K12)	FICI Silver Sulfate (E. coli strain K12)	interaction (interpretation of FICI) (E. coli strain K12; [6])	FICI (MRSA (USA300); [7])	FICI (MRSA (USA300); [8])	interaction (interpretation of FICI) (MRSA (USA300); [5])	interaction (interpretation of FICI) (MRSA (USA300); [9])	kill-curve effect (CFU) (MRSA (strain USA300) [2])	time for which bactericidal effect persisted (MRSA (strain USA300) [2]) [h]	MRSA growth by 24 hours (MRSA (strain USA300) [2]; cannabinoid alone at ½×MIC)	kill-curve effect (CFU) (MRSA (strain USA300) [2]; [10])	kill-curve effect (CFU) (MRSA (strain USA300) [2]; [11])	kill-curve effect (CFU) (MRSA (strain USA300) [2]; [12])	time of onset of bactericidal effect (MRSA (strain USA300) [2]; [12]) [h]	time through which bactericidal effect persisted (MRSA (strain USA300) [2]; [12]) [h]	kill-curve effect (CFU) (MRSA (strain USA300) [2]; [13])	time for which bactericidal effect remained (MRSA (strain USA300) [2]; [13])	time of onset of bactericidal effect (MRSA (strain USA300) [2]; [13]) [h]	other results
CCCCCc1cc(O)c2c(c1)OC(C)(CCC=C(C)C)C=C2 (centres unmarked) [CBC, cannabichromene]	8	some level of inhibition	0.73	0.63	potentiation	0.141	0.375	synergistic	strongly synergistic	nearly identical full bactericidal effect	24	full bacterial growth had occurred; also recorded: returned to levels approximating that of 0×MIC treatment	Almost identical results	strong bactericidal effect	full bactericidal effect	2	24	complete bactericidal effect	6 h	2	time through which bacterial growth was inhibited (E. coli (strain K12)): 24 h; time through which the effect persisted (E. coli (strain K12)): 24 h; time to the reduction in E. coli CFU (E. coli (strain K12)): ≤ 6 h; time through which E. coli growth was inhibited (E. coli (strain K12); [3]): 24 h; time to the reduction in E. coli CFU (E. coli (strain K12); [3]): ≤ 4 h; inhibitory effect on E. coli growth over 24 hours (E. coli (strain K12); cannabinoid alone, 8 mg/L): failed to achieve any inhibitory effect; inhibition of E. coli growth over 24 hours (E. coli (strain K12); cannabinoid alone, 16 mg/L): failed to achieve any inhibition; inhibition of E. coli growth (summary) (E. coli (strain K12); cannabinoid alone, concentrations up to 16 mg/L): fail to achieve any detectable inhibition; antibiotic effect of combination compared with silver nanoparticles alone (MRSA (strain USA 300); cannabinoid 2% + silver nanoparticles 2% silver w/w to PVA, films or coated catheter sections): increased antibiotic effect; interaction (interpretation of FICI) (E. coli strain K12; [5]): potentiation; time of onset of bactericidal effect (MRSA (strain USA300) [2]): ≤ 2 h; duration of bacterial growth inhibition (MRSA (strain USA300) [2]; cannabinoid alone at ½×MIC): 6 h; combined inhibitory effects compared to ½×MIC combinations (MRSA (strain USA300) [2]; cannabinoid ¼×MIC + AgNPs): weaker and less durable; duration of strong inhibition (MRSA (strain USA300) [2]; cannabinoid ¼×MIC + silver nitrate 1 mg/L): 6 h; effect at 24 hours (MRSA (strain USA300) [2]; [13]): strong inhibition of bacterial growth; kill-curve effect (CFU) (MRSA (strain USA300) [2]; [14]): fully bactericidal; time of onset of bactericidal effect (MRSA (strain USA300) [2]; [14]): 2 h; time through which bactericidal effect remained (MRSA (strain USA300) [2]; [14]): 24 h
CCCCCc1cc(O)c(C/C=C(\C)CCC=C(C)C)c(O)c1 [CBG, cannabigerol]	2	some level of inhibition	1.25	1	not observed	0.625	0.625	partial synergy	partially synergistic	highly comparable bactericidal effect	24	returned to levels equal to that of 0×MIC treatment	perceptibly bactericidal	bactericidal effect which was greater than that seen with ½×MIC CBG alone	rapid, full bactericidal effect	2	24	bactericidal effect	up to 6 hours	2	antibiotic effect of combination compared with silver nanoparticles alone (MRSA (strain USA 300)): increased antibiotic effect; kill-curve effect (CFU) (MRSA (strain USA300) [2]; [14]): fully bactericidal effect; time of onset of bactericidal effect (MRSA (strain USA300) [2]; [14]): 2 h; time through which bactericidal effect remained (MRSA (strain USA300) [2]; [14]): 24 h
O=[N+]([O-])[O-].[Ag+] [silver nitrate, reference compound]	–	some level of inhibition	–	–	–	–	–	–	–	–	–	–	–	–	–	–	–	–	–	–	MIC (MRSA (strain USA300) [1]): 16 µg/mL; inhibition of bacterial growth (ring) (MRSA (strain USA 300); listed as Silver nitrate): strong inhibition; bacterial growth at 24 hours (MRSA (strain USA300) [2]; silver nitrate alone, 1 mg/L): full bacterial growth had occurred; duration of bacterial growth inhibition (MRSA (strain USA300) [2]; silver nitrate alone, 5 mg/L): 4 h; duration of bacterial growth inhibition (MRSA (strain USA300) [2]; silver nitrate alone, 8 mg/L): 6 h
